Data: PMC11859928, “Design, Synthesis, and Antiproliferative Activity of Novel Indole/1,2,4-Triazole Hybrids as Tubulin Polymerization Inhibitors” (Pharmaceuticals, 2025)
Where two headings read alike, the source gives them in different places.

Legend:
SF-295 = experiment: NCI five-dose assay; assay type: cell-based, human; conditions: SF-295, five dose levels
HT29 = experiment: NCI five-dose assay; assay type: cell-based, human; conditions: HT29, five dose levels
UACC-257 = experiment: NCI five-dose assay; assay type: cell-based, human; conditions: UACC-257, five dose levels
SW-620 = experiment: NCI five-dose assay; assay type: cell-based, human; conditions: SW-620, five dose levels
SK-OV-3 = experiment: NCI five-dose assay; assay type: cell-based, human; conditions: Homo sapiens, SK-OV-3, five dose levels
MDA-MB-435 = experiment: NCI five-dose assay; assay type: cell-based, human; conditions: MDA-MB-435, five dose levels
T-47D = experiment: NCI five-dose assay; assay type: cell-based, human; conditions: five dose levels
HCT-15 = experiment: NCI five-dose assay; assay type: cell-based, human; conditions: HCT-15, five dose levels
TK-10 = experiment: NCI five-dose assay; assay type: cell-based, human; conditions: TK-10, five dose levels
Melanoma subpanel = experiment: NCI five-dose assay, subpanel mean; assay type: cell-based, human
NCI-H522 = experiment: NCI five-dose assay; assay type: cell-based, human; conditions: NCI-H522, five dose levels
Prostate cancer subpanel = experiment: NCI five-dose assay, subpanel mean; assay type: cell-based, human
LOX IMVI = experiment: NCI five-dose assay; assay type: cell-based, human; conditions: five dose levels
tubulin = biological target: T1, tubulin (Sus scrofa, UniProt P02550+P02554); experiment: Tubulin polymerization inhibitory assay; assay type: biochemical
T1 construct: purchased Cytoskeleton Inc., Denver, CO, USA
Procedure, shortened: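 Compound effects on tubulin polymerization were measured with the Tubulin Polymerization Assay Kit (Cytoskeleton Inc., Denver, CO, USA), run as the supplier instructs, which detects polymerization through enhancement of a fluorescent reporter. Docetaxel served as the stabilizing control and vincristine as the destabilizing control, each at 3 µM in PBS.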

EKVX = experiment: NCI five-dose assay; assay type: cell-based, human; conditions: five dose levels
SR = experiment: NCI five-dose assay; assay type: cell-based, human; conditions: five dose levels
[1] = tested on: panel of 60 human tumor cell lines; experiment: NCI five-dose assay, full panel; assay type: cell-based
DU-145 = experiment: NCI five-dose assay; assay type: cell-based, human; conditions: DU-145, five dose levels
HCC-2998 = experiment: NCI five-dose assay; assay type: cell-based, human; conditions: Homo sapiens, HCC-2998, five dose levels
NCI/ADR-RES = experiment: NCI five-dose assay; assay type: cell-based, human; conditions: five dose levels
COLO205 = experiment: NCI five-dose assay; assay type: cell-based, human; conditions: COLO205, five dose levels
NCI-H23 = experiment: NCI five-dose assay; assay type: cell-based, human; conditions: NCI-H23, five dose levels
SF-268 = experiment: NCI five-dose assay; assay type: cell-based, human; conditions: SF-268, five dose levels
K-562 = experiment: NCI five-dose assay; assay type: cell-based, human; conditions: Homo sapiens, K562, K-562, five dose levels
CNS cancer subpanel = experiment: NCI five-dose assay, subpanel mean; assay type: cell-based, human
[2] = Homo sapiens, read-out: GI50 Conc. per Cell Lines
[3] = Homo sapiens, read-out: LC50 (the source's name)
[4] = read-out: GI50 Conc. per Cell Lines
[5] = read-out: LC50 (the source's name)

T1 sequence (P02554 whole entry): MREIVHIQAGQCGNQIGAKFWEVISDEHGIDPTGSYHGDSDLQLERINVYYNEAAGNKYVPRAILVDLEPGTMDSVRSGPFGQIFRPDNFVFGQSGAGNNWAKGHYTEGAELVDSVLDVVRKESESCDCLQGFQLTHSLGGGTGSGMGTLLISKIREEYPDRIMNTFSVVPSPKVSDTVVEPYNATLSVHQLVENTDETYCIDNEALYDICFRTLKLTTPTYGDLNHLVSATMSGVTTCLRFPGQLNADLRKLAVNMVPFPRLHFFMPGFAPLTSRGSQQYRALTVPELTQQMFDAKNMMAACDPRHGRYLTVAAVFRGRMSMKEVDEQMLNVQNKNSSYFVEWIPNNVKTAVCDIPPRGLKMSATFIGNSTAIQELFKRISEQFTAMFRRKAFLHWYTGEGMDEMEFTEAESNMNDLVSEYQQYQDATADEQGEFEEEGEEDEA
T1 sequence (P02550 whole entry): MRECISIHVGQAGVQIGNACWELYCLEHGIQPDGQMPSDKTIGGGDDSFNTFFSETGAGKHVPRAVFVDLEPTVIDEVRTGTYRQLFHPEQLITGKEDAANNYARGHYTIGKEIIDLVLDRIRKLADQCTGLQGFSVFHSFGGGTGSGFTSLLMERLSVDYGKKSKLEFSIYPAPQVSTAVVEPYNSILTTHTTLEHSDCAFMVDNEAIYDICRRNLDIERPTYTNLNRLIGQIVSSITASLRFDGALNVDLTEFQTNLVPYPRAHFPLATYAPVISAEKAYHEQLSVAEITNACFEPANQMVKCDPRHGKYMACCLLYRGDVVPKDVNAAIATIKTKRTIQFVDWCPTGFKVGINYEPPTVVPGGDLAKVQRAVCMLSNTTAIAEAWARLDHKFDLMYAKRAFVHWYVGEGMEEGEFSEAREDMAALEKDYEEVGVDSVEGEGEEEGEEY

## O/N=C(\CSc1nnc(-c2c[nH]c3ccccc23)n1-c1ccccc1)c1ccc(Cl)cc1 [Compound 7j, (Z)-2-((5-(1H-Indol-3-yl)-4-phenyl-4H-1,2,4-triazol-3-yl)thio)-1-(4-chlorophenyl) Ethanone Oxime]
SF-295; [2]
  GI50: 3.11 µM
SF-295; [3]
  CC50: > 100 µM
SF-295
  TGI Conc. per Cell Lines: 13.4 µM
HT29
  TGI Conc. per Cell Lines: 11.8 µM
HT29; Homo sapiens, HT-29, read-out: GI50 Conc. per Cell Lines
  GI50: 3.04 µM
HT29; Homo sapiens, HT-29, read-out: LC50 (the source's name)
  CC50: > 100 µM
UACC-257; [2]
  GI50: 4.67 µM
UACC-257; [3]
  CC50: > 100 µM
UACC-257
  TGI Conc. per Cell Lines: 87.8 µM
SW-620; [2]
  GI50: 3.08 µM
SW-620; [3]
  CC50: 83.2 µM
SW-620
  TGI Conc. per Cell Lines: 16.1 µM
SK-OV-3; [4]
  GI50: 3.38 µM
SK-OV-3; [5]
  CC50: 71.4 µM
MDA-MB-435; [2]
  GI50: 1.74 µM
MDA-MB-435; [3]
  CC50: 60.5 µM
MDA-MB-435
  TGI Conc. per Cell Lines: 3.41 µM
T-47D; Homo sapiens, T47D
  LC50 (concentration killing 50% of cells): > 100 µM
T-47D; Homo sapiens, T47D, read-out: GI50 Conc. per Cell Lines
  GI50: 3.6 µM
T-47D
  TGI Conc. per Cell Lines: 31.4 µM
HCT-15
  TGI Conc. per Cell Lines: 13.6 µM
HCT-15; [2]
  GI50: 3.2 µM
HCT-15; [3]
  CC50: > 100 µM
TK-10; [2]
  GI50: 3.7 µM
TK-10; [3]
  CC50: > 100 µM
TK-10
  TGI Conc. per Cell Lines: 17.7 µM
Melanoma subpanel; Homo sapiens, Melanoma, average sensitivity of all cell lines of the subpanel, read-out: GI50 Subpanel MID b
  GI50: 3.42 µM
Melanoma subpanel; Melanoma subpanel
  GI50 Selectivity Ratio (MID a/MID b): 1.06
NCI-H522; [2]
  GI50: 3.11 µM
NCI-H522; [3]
  CC50: 81.7 µM
NCI-H522
  TGI Conc. per Cell Lines: 12.5 µM
Prostate cancer subpanel; Homo sapiens, Prostate cancer, average sensitivity of all cell lines of the subpanel, read-out: GI50 Subpanel MID b
  GI50: 2.45 µM
Prostate cancer subpanel; Prostate cancer subpanel
  GI50 Selectivity Ratio (MID a/MID b): 1.48
LOX IMVI; [2]
  GI50: 1.72 µM
LOX IMVI; [3]
  CC50: 17.4 µM
LOX IMVI
  TGI Conc. per Cell Lines: 3.12 µM
tubulin; conc 0.01 (unit not given; IC50 from this curve in µg/ml)
  %inhibition: 5.23%
tubulin; conc 0.1 (unit not given; IC50 from this curve in µg/ml)
  %inhibition: 15.6%
tubulin; conc 1 (unit not given; IC50 from this curve in µg/ml)
  %inhibition: 34.8%
tubulin; conc 10 (unit not given; IC50 from this curve in µg/ml)
  %inhibition: 58.9%
tubulin; conc 100 (unit not given; IC50 from this curve in µg/ml)
  %inhibition: 87.6%
tubulin; read-out: Tub. IC50±SD (converted)
  IC50: 6.26 µM
tubulin; read-out: Tubulin Inhibitory Effect, IC50
  IC50: 6.26 ± 0.15 µM
EKVX; [2]
  GI50: 3.21 µM
EKVX; [3]
  CC50: > 100 µM
EKVX
  TGI Conc. per Cell Lines: 19.2 µM
SR; [2]
  GI50: 4.74 µM
SR; [3]
  CC50: > 100 µM
SR
  TGI Conc. per Cell Lines: >100 µM
[1]; average sensitivity of all cell lines, read-out: GI50 MID a
  GI50: 3.65 µM
[1]; most of the tested cell lines across nine subpanels, read-out: GI50 values, range across nine subpanels
  GI50: 2.45 to 5.23 µM
DU-145
  TGI Conc. per Cell Lines: 6.32 µM
DU-145; [2]
  GI50: 2.59 µM
DU-145; [3]
  CC50: > 100 µM
HCC-2998; [4]
  GI50: 4.74 µM
HCC-2998; [5]
  CC50: > 100 µM
NCI/ADR-RES; Homo sapiens
  LC50: > 100 µM
NCI/ADR-RES; [2]
  GI50: 2.95 µM
NCI/ADR-RES
  TGI Conc. per Cell Lines: 9.50 µM
COLO205
  TGI Conc. per Cell Lines: 25.9 µM
COLO205; Homo sapiens, COLO 205, read-out: GI50 Conc. per Cell Lines
  GI50: 4.47 µM
COLO205; Homo sapiens, COLO 205, read-out: LC50 (the source's name)
  CC50: > 100 µM
NCI-H23; [2]
  GI50: 6.52 µM
NCI-H23; [3]
  CC50: > 100 µM
NCI-H23
  TGI Conc. per Cell Lines: >100 µM
SF-268; [2]
  GI50: 2.11 µM
SF-268; [3]
  CC50: > 100 µM
SF-268
  TGI Conc. per Cell Lines: 5.08 µM
K-562; [4]
  GI50: 2.55 µM
K-562; [5]
  CC50: > 100 µM
CNS cancer subpanel; CNS cancer subpanel
  GI50 Selectivity Ratio (MID a/MID b): 0.763
CNS cancer subpanel; Homo sapiens, CNS cancer, average sensitivity of all cell lines of the subpanel, read-out: GI50 Subpanel MID b
  GI50: 4.78 µM
